Earlier results on three compounds are cited in patent US11823773B2, “Nant cancer vaccine strategies” (Nant Holdings IP, LLC, priority 2018, dated 2023).

Where only a bound is given, the exact number is not on record here.

rituximab: anti-CD20 antibody: the “response rate to single agent retreatment” value in the series on CD20-positive NHL (rituximab refractory (RR) patients, reasonable estimate, no trial data reported) is on record as less than 5%. The “patients responding to retreatment” value with CD20-positive NHL (rituximab sensitive (RS) patients) was “approximately 40%”.
As to `CC(C)(C)c1nc(-c2cccc(NS(=O)(=O)c3c(F)cccc3F)c2F)c(-c2ccnc(N)n2)s1` [Dabrafenib], the “PFS compared to dacarbazine” value in the series on advanced melanoma (human, in vivo) is given as “improvement in PFS”.
On to `O=C(c1ccc(F)c(F)c1Nc1ccc(I)cc1F)N1CC(O)([C@@H]2CCCCN2)C1` [cobimetinib], for which the “PFS over vemurafenib treatment alone” value in the series with advanced melanoma (in combination with vemurafenib) was “significant increase in PFS”.
